Measured values reported in US20240391923A1, “METHIONINE ADENOSYLTRANSFERASE 2A INHIBITOR FOR TREATING MTAP DELETION-TYPE CANCER” (SUZHOU GENHOUSE BIO CO., LTD., priority 2022, published 2024).
Read-outs that look alike come from different tables or passages of the source.

Tests used:
[1] = test system: SDMA in HCT116-MTAP-knockout cell line; assay: Cell symmetric dimethylarginine (SDMA) test, In-cell Western, HCT116-MTAP-knockout; format: cell-based; settings: Homo sapiens, 96 h
[2] = test system: SDMA in human colon cancer cell line HCT116; assay: Cell symmetric dimethylarginine (SDMA) test, In-cell Western, HCT116 (MTAP wild-type); format: cell-based; settings: Homo sapiens, HCT-116, 96 h
Procedure, shortened: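 HCT116 cells treated 4 days at 37° C with compound, top concentration 6 μM, 1:4 dilutions, 6 points, versus DMSO. Fixed cells stained for SDMA with DRAQ5 normalisation; 800/700 nm ratio after background subtraction fitted by non-linear regression for IC50.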

DOHH-2 cell strain = assay: Tumor cell proliferation inhibition assay (CellTiter-Glo), DOHH-2; format: cell-based; settings: Homo sapiens, 120 h, DOHH-2 cells, 5-day treatment
Experimental: (§1) After the HCT116-MTAP-knockout (−/−) cell strain, the HCT116-MTAP wild-type(+/+)-cell strain, the DOHH-2 cell strain, or the Hut-78 cell strain was treated with the test compound for 5 days, the ATP level was measured using a CellTiter-Glo kit of Promega to evaluate the inhibition of the test compound against the growth of the tumor cell strain.
(§2) In the present application, the HCT116-MTAP-knockout (−/−) cell strain, the HCT116-MTAP wild-type (+/+)-cell strain, the DOHH-2 cell strain, or the Hut-78 cell strain was seeded into a 96-well cell culture plate at an appropriate cell density. After 24 h, the cells were treated using the test compounds diluted 1:3 fold at the highest concentration of 10 μM for 10 gradients, and a DMSO treatment group was set up separately. The cells were cultured in a 37° C./5% CO2 incubator for 5 days.

[3] = target: MAT2A recombinant protein (Homo sapiens, UniProt P31153); assay: MAT2A inhibitory activity (malachite green colorimetric enzyme assay); format: biochemical
Procedure, shortened: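 Recombinant human MAT2A with L-methionine and ATP in 50 mM HEPES pH 7.5, 50 mM KCl, 10 mM MgCl2, 10 mM DTT, 60 min at room temperature. Phosphate released detected by malachite green reagent (15 min) at 630 nm. Ten-point 1:3 series from 1000 nM final; IC50 by variable-slope non-linear regression.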

[4] = test system: HCT116-MTAP-knockout (−/−) cell strain; assay: Tumor cell proliferation inhibition assay (CellTiter-Glo), HCT116-MTAP-knockout (-/-); format: cell-based; settings: Homo sapiens, 120 h, HCT116-MTAP-knockout (−/−) cells, 5-day treatment
Procedure, shortened: (§3)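 Growth inhibition is evaluated from cellular ATP measured with CellTiter-Glo once cells have been treated for 5 days. Compounds are added 24 h after seeding as ten threefold dilutions starting at 10 μM, with a separate DMSO treatment group.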

[5] = test system: HCT116-MTAP wild-type (+/+)-cell strain; assay: Tumor cell proliferation inhibition assay (CellTiter-Glo), HCT116-MTAP wild-type (+/+); format: cell-based; settings: Homo sapiens, 120 h, HCT116-MTAP wild-type (+/+) cells, 5-day treatment
Procedure, shortened: as §3

Hut-78 cell strain = assay: Tumor cell proliferation inhibition assay (CellTiter-Glo), Hut-78; format: cell-based; settings: Homo sapiens, HuT78, 120 h, Hut-78 cells, 5-day treatment
Experimental: as §1, §2

[6] = Pharmacokinetic test in mice (IV and PO); format: in vivo; settings: mouse, plasma, BALB/c mice; for half-life: read-out: T½ (converted)
[7] = IC50 score class, read-out: Cell 96 h SDMA Inhibition (HCT116-MTAP−/−) (score)
[8] = read-out: Cell 96 h SDMA Inhibition (HCT116-MTAP−/−)
[9] = IC50 score class, read-out: Cell 96 h SDMA Inhibition (HCT116-MTAP+/+) (score)
[10] = read-out: Cell 96 h SDMA inhibition (HCT116-MTAP+/+)
[11] = IC50 score, read-out: Tumor cell 5-day relative growth inhibition (DOHH-2) (nM), score
[12] = IC50 value, read-out: Tumor cell 5-day relative growth inhibition (DOHH-2)
[13] = IC50 score class, read-out: MAT2A Inhibition (score)

Chain of MAT2A recombinant protein (P31153 whole entry): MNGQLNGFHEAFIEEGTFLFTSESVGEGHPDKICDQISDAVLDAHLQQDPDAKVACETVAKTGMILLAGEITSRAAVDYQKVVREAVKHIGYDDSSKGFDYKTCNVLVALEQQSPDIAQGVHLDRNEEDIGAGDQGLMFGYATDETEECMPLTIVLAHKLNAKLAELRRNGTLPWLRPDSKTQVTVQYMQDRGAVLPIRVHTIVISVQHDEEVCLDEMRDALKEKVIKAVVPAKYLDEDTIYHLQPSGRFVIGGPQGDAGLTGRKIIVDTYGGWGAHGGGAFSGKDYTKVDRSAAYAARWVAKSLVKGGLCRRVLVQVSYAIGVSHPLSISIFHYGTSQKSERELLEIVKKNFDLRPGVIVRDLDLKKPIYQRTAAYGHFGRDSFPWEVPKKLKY

O=c1c2nn(CCO)cc2c2ccc(Cl)cc2n1-c1cccnc1 [Compound B46]
IC50 [1, 7]: 200 to 1000 nM | IC50 [1, 8]: 236 nM | IC50 [2, 9]: > 3000 nM | IC50 [2, 10]: 19400 nM | IC50 (DOHH-2 cell strain; [11]): ≥ 2000 nM | IC50 (DOHH-2 cell strain; [12]): 6030 nM

Cc1c2c(nn1C)c(=O)n(-c1cccnc1)c1cc(Cl)ccc21 [Compound B16]
IC50 [3, 13]: < 100 nM | IC50 ([3]; read-out: MAT2A Inhibition): 26.8 nM | IC50 [1, 7]: < 200 nM | IC50 [1, 8]: 63.6 nM | IC50 [2, 9]: 200 to 1000 nM | IC50 [2, 10]: 636 nM | IC50 (DOHH-2 cell strain; [11]): 500 to 2000 nM | IC50 (DOHH-2 cell strain; [12]): 811 nM

CCn1nc2c(=O)n(-c3cccnc3)c3cc(Cl)ccc3c2c1Cl [Compound B20]
IC50 [3, 13]: < 100 nM | IC50 ([3]; read-out: MAT2A Inhibition): 37.2 nM | IC50 [1, 7]: 200 to 1000 nM | IC50 [1, 8]: 521 nM | IC50 [2, 9]: > 3000 nM | IC50 [2, 10]: 5150 nM | IC50 (DOHH-2 cell strain; [11]): ≥ 2000 nM | IC50 (DOHH-2 cell strain; [12]): 2360 nM

CCn1cc2c(n1)c(=O)n(Cc1c[nH]cn1)c1cc(Cl)ccc21 [Compound B18]
IC50 [3, 13]: 100 to 1000 nM | IC50 ([3]; read-out: MAT2A Inhibition): 149 nM | IC50 [1, 7]: > 3000 nM | IC50 [1, 8]: 8410 nM | IC50 (DOHH-2 cell strain; [11]): ≥ 2000 nM | IC50 (DOHH-2 cell strain; [12]): > 2000 nM

CCn1cc2c(n1)c(=O)n(-c1c(C)ccnc1C)c1cc(Cl)ccc21 [Compound B31]
IC50 [3, 13]: < 100 nM | IC50 ([3]; read-out: MAT2A Inhibition): 65.3 nM | IC50 [1, 7]: < 200 nM | IC50 [1, 8]: 169 nM | IC50 [2, 9]: 200 to 1000 nM | IC50 [2, 10]: 971 nM | IC50 (DOHH-2 cell strain; [11]): ≥ 2000 nM | IC50 (DOHH-2 cell strain; [12]): 8080 nM

CCn1cc2c(n1)c(=O)n(-c1cnccn1)c1cc(Cl)ccc21 [Compound B6]
IC50 [1, 7]: > 3000 nM | IC50 [1, 8]: 3570 nM | IC50 [2, 9]: 200 to 1000 nM | IC50 (DOHH-2 cell strain; [11]): ≥ 2000 nM | IC50 (DOHH-2 cell strain; [12]): 16900 nM

Cn1cc2c(n1)c(=O)n(-c1cccnc1)c1cc(C3CC3)ccc21 [Compound B70]
IC50 [1, 7]: 200 to 1000 nM | IC50 [1, 8]: 375 nM | IC50 [2, 9]: 1000 to 3000 nM | IC50 [2, 10]: 1550 nM | IC50 (DOHH-2 cell strain; [11]): 500 to 2000 nM | IC50 (DOHH-2 cell strain; [12]): 1930 nM

Cc1c2c(nn1C)c(=O)n(-c1cccnc1)c1nc(C(F)(F)F)ccc21 [Compound B198]
IC50 [3, 13]: < 100 nM | IC50 ([3]; read-out: MAT2A Inhibition): 17.1 nM | IC50 [1, 7]: < 200 nM | IC50 [1, 8]: 48.5 nM | IC50 [2, 9]: 200 to 1000 nM | IC50 [2, 10]: 567 nM | IC50 ([4]; IC50 score, read-out: Tumor cell 5-day relative growth inhibition (HCT116-MTAP−/−) (nM), score): < 500 nM | IC50 ([4]; IC50 value, read-out: Tumor cell 5-day relative growth inhibition (HCT116-MTAP−/−)): 31.5 nM | IC50 ([5]; IC50 score, read-out: Tumor cell 5-day relative growth inhibition (HCT116-MTAP+/+) (nM), score): 500 to 2000 nM | IC50 ([5]; IC50 value, read-out: Tumor cell 5-day relative growth inhibition (HCT116-MTAP+/+)): 745 nM | IC50 (Hut-78 cell strain; IC50 score, read-out: Tumor cell 5-day relative growth inhibition (Hut-78) (nM), score): < 500 nM | IC50 (Hut-78 cell strain; IC50 value, read-out: Tumor cell 5-day relative growth inhibition (Hut-78)): 40.2 nM | AUC ([6]; IV 2 mg/kg): 8.7 µM·h | clearance ([6]; IV 2 mg/kg): 10.7 mL/min/kg | bioavailability ([6]; IV 2 mg/kg, PO 10 mg/kg): 150% | half-life ([6]; IV 2 mg/kg): 40.9 min | Vd ([6]; IV 2 mg/kg, read-out: Vz): 0.6 L/kg | AUC ([6]; PO 10 mg/kg): 65.2 µM·h | half-life ([6]; PO 10 mg/kg): 55.1 min

Cn1nc2c(=O)n(-c3cccnc3)c3cc(Cl)ccc3c2c1C(F)F [Compound B27]
IC50 [3, 13]: < 100 nM | IC50 ([3]; read-out: MAT2A Inhibition): 77 nM | IC50 [1, 7]: 1000 to 3000 nM | IC50 [1, 8]: 1280 nM | IC50 [2, 9]: > 3000 nM | IC50 [2, 10]: > 3000 nM | IC50 (DOHH-2 cell strain; [11]): ≥ 2000 nM | IC50 (DOHH-2 cell strain; [12]): 11700 nM

CCn1cc2c(n1)c(=O)n(-c1cnccc1C)c1cc(Cl)ccc21 [Compound B51]
IC50 [3, 13]: < 100 nM | IC50 ([3]; read-out: MAT2A Inhibition): 40.8 nM | IC50 [1, 7]: > 3000 nM | IC50 [1, 8]: 8520 nM | IC50 [2, 9]: > 3000 nM | IC50 [2, 10]: > 10000 nM | IC50 (DOHH-2 cell strain; [11]): ≥ 2000 nM | IC50 (DOHH-2 cell strain; [12]): 7690 nM

CCn1cc2c(n1)c(=O)n(-c1cccc(O)c1)c1cc(Cl)ccc21 [Compound B8]
IC50 [1, 7]: 200 to 1000 nM | IC50 [1, 8]: 271 nM | IC50 [2, 9]: 1000 to 3000 nM | IC50 [2, 10]: 2100 nM | IC50 (DOHH-2 cell strain; [11]): 500 to 2000 nM | IC50 (DOHH-2 cell strain; [12]): 1000 nM
